Results taken from patent publication US6737383B1, “Herbicidal oxadiazolidines” (priority 1999, dated 2004).

Experiments:
[1] = test system: bedstraw; assay: Test B pre/postemergence bedstraw; format: in vivo, Galium aparine; conditions: Preemergence
Summary of the method: (§1)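 Herbicidal effect was estimated by eye on a ten-point control scale after plants spent twelve to sixteen days in a greenhouse following soil or foliar treatment. Foliar sprays targeted plants at one to four leaves; all doses were formulated in a non-phytotoxic solvent with surfactant.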

[2] = test system: blackgrass; assay: Test B pre/postemergence blackgrass; format: in vivo, Alopecurus myosuroides; conditions: Preemergence
Summary of the method: as §1

[3] = test system: surinam grass; assay: Test B pre/postemergence surinam grass; format: in vivo, Brachiaria decumbens; conditions: Preemergence
Summary of the method: as §1

[4] = test system: cocklebur; assay: Test B pre/postemergence cocklebur; format: in vivo, Xanthium strumarium; conditions: Preemergence
Summary of the method: as §1

[5] = test system: corn; assay: Test B pre/postemergence corn; format: in vivo, Zea mays; conditions: Preemergence
Summary of the method: as §1

[6] = test system: crabgrass; assay: Test B pre/postemergence crabgrass; format: in vivo, Digitaria sanguinalis; conditions: Preemergence
Summary of the method: as §1

[7] = test system: giant foxtail; assay: Test B pre/postemergence giant foxtail; format: in vivo, Setaria faberii; conditions: Preemergence
Summary of the method: as §1

[8] = test system: morningglory; assay: Test B pre/postemergence morningglory; format: in vivo, Ipomoea hederacea; conditions: Preemergence
Summary of the method: as §1

[9] = test system: pigweed; assay: Test B pre/postemergence pigweed; format: in vivo, Amaranthus retroflexus; conditions: Preemergence
Summary of the method: as §1

[10] = test system: rape; assay: Test B pre/postemergence rape; format: in vivo, Brassica napus; conditions: Preemergence
Summary of the method: as §1

[11] = test system: soybean; assay: Test B pre/postemergence soybean; format: in vivo, Glycine max; conditions: Preemergence
Summary of the method: as §1

[12] = test system: sugar beet; assay: Test B pre/postemergence sugar beet; format: in vivo, Beta vulgaris; conditions: Preemergence
Summary of the method: as §1

[13] = test system: velvetleaf; assay: Test B pre/postemergence velvetleaf; format: in vivo, Abutilon theophrasti; conditions: Preemergence
Summary of the method: as §1

[14] = test system: wheat; assay: Test B pre/postemergence wheat; format: in vivo, Triticum aestivum; conditions: Preemergence
Summary of the method: as §1

[15] = test system: wild oat; assay: Test B pre/postemergence wild oat; format: in vivo, Avena fatua; conditions: Preemergence
Summary of the method: as §1

[16] = test system: purple nutsedge; assay: Test B pre/postemergence purple nutsedge; format: in vivo, Cyperus rotundus; conditions: Preemergence
Summary of the method: as §1

[17] = test system: rice; assay: Test B flood test rice; format: in vivo, Oryza sativa
Summary of the method: (§2)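 Read-out is a visual response score from 0 (no effect) to 10 (complete control), assigned by comparison with untreated controls. Treatment was applied at the 2-leaf stage, and plants stayed in the greenhouse for twelve to sixteen days before scoring.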

[18] = test system: smallflower flatsedge; assay: Test B flood test smallflower flatsedge; format: in vivo, Cyperus difformis
Summary of the method: as §2

[19] = test system: duck salad; assay: Test B flood test duck salad; format: in vivo, Heteranthera limosa
Summary of the method: as §2

[20] = test system: bamyardgrass; assay: Test B flood test barnyardgrass; format: in vivo, Echinochloa crus-galli
Summary of the method: as §2

[21] = Rate 125 g/ha, scale of 0 to 10 where 0 is no effect and 10 is complete control
[22] = Rate 250 g/ha, scale 0 (no effect) to 10 (complete control)
[23] = Rate 500 g/ha, scale 0 to 10 (0 no effect, 10 complete control)
[24] = Rate 62 g/ha, scale of 0 to 10 where 0 is no effect and 10 is complete control
[25] = Pre-emergence, Rate 62 g/ha, scale 0 to 10, 0 is no effect, 10 is complete control
[26] = Rate 125 g/ha, Pre-emergence section (flood test species), scale 0 to 10, 0 no effect, 10 complete control
[27] = Rate 250 g/ha, Pre-emergence (flood test species), scale 0 to 10, 0 is no effect, 10 is complete control
[28] = Rate 500 g/ha, Pre-emergence section of Table B, 0 to 10 scale (0 no effect, 10 complete control)

SMILES: CC(C)N(C(=O)n1oc(=O)n(C(C)C2CC2)c1=O)c1ccc(F)cc1F (centres unmarked) [Compound 720]
- Plant response rating, Bedstraw [1, 21]: 10
- Bedstraw plant response rating [1, 22]: 10
- Bedstraw plant response rating [1, 23]: 10
- Blackgrass plant response rating [2, 24]: 9
- Plant response rating, Blackgrass [2, 21]: 9
- Blackgrass plant response rating [2, 22]: 10
- Blackgrass plant response rating [2, 23]: 10
- B. signalgrass plant response rating [3, 24]: 8
- Plant response rating, B. signalgrass [3, 21]: 9
- B. signalgrass plant response rating [3, 22]: 10
- B. signalgrass plant response rating [3, 23]: 10
- Cocklebur plant response rating [4, 24]: 0
- Plant response rating, Cocklebur [4, 21]: 0
- Cocklebur plant response rating [4, 22]: 0
- Corn plant response rating [5, 24]: 0
- Plant response rating, Corn [5, 21]: 2
- Corn plant response rating [5, 22]: 4
- Crabgrass plant response rating [6, 24]: 9
- Plant response rating, Crabgrass [6, 21]: 9
- Crabgrass plant response rating [6, 22]: 10
- Crabgrass plant response rating [6, 23]: 10
- Giant foxtail plant response rating [7, 24]: 9
- Plant response rating, Giant foxtail [7, 21]: 10
- Giant foxtail plant response rating [7, 22]: 10
- Giant foxtail plant response rating [7, 23]: 10
- Morningglory plant response rating [8, 24]: 0
- Plant response rating, Morningglory [8, 21]: 0
- Morningglory plant response rating [8, 23]: 2
- Redroot pigweed plant response rating [9, 24]: 8
- Plant response rating, Redroot pigweed [9, 21]: 9
- Redroot pigweed plant response rating [9, 22]: 10
- Redroot pigweed plant response rating [9, 23]: 10
- Rape plant response rating [10, 24]: 6
- Plant response rating, Rape [10, 21]: 7
- Rape plant response rating [10, 22]: 9
- Rape plant response rating [10, 23]: 9
- Soybean plant response rating [11, 24]: 0
- Plant response rating, Soybean [11, 21]: 0
- Soybean plant response rating [11, 22]: 0
- Soybean plant response rating [11, 23]: 0
- Sugarbeets plant response rating [12, 24]: 4
- Plant response rating, Sugarbeets [12, 21]: 6
- Sugarbeets plant response rating [12, 22]: 8
- Sugarbeets plant response rating [12, 23]: 8
- Velvetleaf plant response rating [13, 24]: 1
- Plant response rating, Velvetleaf [13, 21]: 2
- Velvetleaf plant response rating [13, 22]: 3
- Velvetleaf plant response rating [13, 23]: 3
- Wheat plant response rating [14, 24]: 0
- Plant response rating, Wheat [14, 21]: 0
- Wheat plant response rating [14, 22]: 5
- Wheat plant response rating [14, 23]: 5
- Wild oats plant response rating [15, 24]: 7
- Plant response rating, Wild oats [15, 21]: 8
- Wild oats plant response rating [15, 22]: 9
- Wild oats plant response rating [15, 23]: 9
- Plant response rating, Nutsedge [16, 21]: 0
- Nutsedge plant response rating [16, 23]: 0
- Rice plant response rating [17, 25]: 0
- Rice plant response rating [17, 26]: 0
- Rice plant response rating [17, 27]: 0
- Rice plant response rating [17, 28]: 0
- S. Flatsedge plant response rating [18, 25]: 0
- S. Flatsedge plant response rating [18, 26]: 0
- S. Flatsedge plant response rating [18, 27]: 0
- S. Flatsedge plant response rating [18, 28]: 0
- Ducksalad plant response rating [19, 25]: 0
- Ducksalad plant response rating [19, 26]: 0
- Ducksalad plant response rating [19, 27]: 0
- Ducksalad plant response rating [19, 28]: 0
- Barnyardgrass plant response rating [20, 25]: 0
- Barnyardgrass plant response rating [20, 26]: 0
- Barnyardgrass plant response rating [20, 27]: 0
- Barnyardgrass plant response rating [20, 28]: 0
